Legend:
[1] = Volume of distribution at steady state in Sprague-Dawley rat at 1 mg/kg, iv measured upto 24 hrs by LC-MS/MS analysis; assay type: ADME, organism-based; details: in vivo, read-out: Vdss
[2] = Kinetic solubility of compound upto 500 uM at pH 4 measured after 16 hrs under shaking condition by UV-visible method; assay type: physicochemical; details: buffer, read-out: Kinetic_solubility
[3] = AUC(0 to 24 hrs) in Sprague-Dawley rat at 300 mg/kg; assay type: ADME, organism-based; parameters: dose 300 mg/kg; details: in vivo
[4] = Tmax in Sprague-Dawley rat at 300 mg/kg; assay type: ADME, organism-based; details: in vivo
[5] = AUC in Sprague-Dawley rat at 10 mg/kg, po measured upto 24 hrs by LC/MS-MS analysis; assay type: ADME, organism-based; parameters: time < 24 hrs, dose 10 mg/kg, route po; details: in vivo
[6] = Cmax in cynomolgus monkey at 5 mg/kg, po measured upto 24 hrs by LC/MS-MS analysis; assay type: ADME, organism-based, Macaca fascicularis; parameters: time < 24 hrs, dose 5 mg/kg, route po; details: in vivo
[7] = Cmax in BALB/c mouse at 10 mg/kg, po measured upto 24 hrs by LC/MS-MS analysis; assay type: ADME, organism-based; parameters: dose 10 mg/kg, time < 24 hrs, route po; details: in vivo
[8] = Metabolic stability in rat liver S9 fraction measured upto 60 mins by LC-MS/MS method; assay type: ADME, subcellular; details: read-out: Stability
[9] = Stability in dog plasma measured up to 4 hrs by LC-MS/MS method; assay type: ADME, cell-free, Canis lupus familiaris; details: read-out: Stability
[10] = Metabolic stability in human liver S9 fraction measured upto 60 mins by LC-MS/MS method; assay type: ADME, subcellular; details: read-out: Stability
CYP2C9 = CYP2C9 (Homo sapiens, UniProt P11712); assay: Inhibition of CYP2C9 in human liver microsomes at 10 uM preincubated for 5 mins followed by NADPH addition by LC-MS/MS analysis relative to control; assay type: ADME, Microsome
[11] = Volume of distribution at steady state in cynomolgus monkey at 1 mg/kg, iv measured upto 24 hrs by LC/MS-MS analysis; assay type: ADME, organism-based, Macaca fascicularis; details: in vivo, read-out: Vdss
Rattus norvegicus [12] = assay: Acute effect on parathyroid hormone in overnight fasted adenine diet-induced chronic kidney disease Wistar rat model assessed as reduction in plasma PTH level at 10 mg/kg, po measured after 4 hrs of post treatment by sandwich ELISA analysis; assay type: functional; parameters: scale not given: the % may be the effect or the level left
[13] = Kinetic solubility of compound in FaSSIF upto 500 uM measured after 16 hrs under shaking condition by UV-visible method; assay type: physicochemical; details: read-out: Kinetic_solubility
[14] = Ratio of drug concentration in blood to thyroid in Sprague-Dawley rat at 10 mg/kg, po measured upto 24 hrs by LC-MS/MS analysis; assay type: ADME, organism-based; details: in vivo
[15] = Cmax in Sprague-Dawley rat at 10 mg/kg, po administered as solution measured upto 24 hrs by LC-MS/MS analysis; assay type: ADME, organism-based; parameters: dose 10 mg/kg, time < 24 hrs, route po; details: in vivo
[16] = AUClast in Sprague-Dawley rat at 1 mg/kg, iv measured upto 24 hrs by LC-MS/MS analysis; assay type: ADME, organism-based; parameters: dose 1 mg/kg, time < 24 hrs, route iv; details: in vivo
[17] = Tmax in Sprague-Dawley rat at 10 mg/kg; assay type: ADME, organism-based; details: in vivo
[18] = Volume of distribution at steady state in Beagle dog at 1 mg/kg, iv measured upto 24 hrs by LC/MS-MS analysis; assay type: ADME, organism-based, Canis lupus familiaris; details: in vivo, read-out: Vdss
[19] = Tmax in Sprague-Dawley rat at 10 mg/kg, po administered as solution measured upto 24 hrs by LC-MS/MS analysis; assay type: ADME, organism-based; details: in vivo
CYP3A4 = CYP3A4 (Homo sapiens, UniProt P08684); assay: Inhibition of CYP3A4 in human liver microsomes at 10 uM preincubated for 5 mins followed by NADPH addition by LC-MS/MS analysis relative to control; assay type: ADME, Microsome
[20] = Apparent permeability across apical to basolateral side in human Caco-2 cells at 5 uM measured after 30 to 120 mins by LC-MS/MS analysis; assay type: ADME, cell-based; details: time 30-120 min
[21] = Protein binding in human plasma incubated for 16 hrs under shaking condition by rapid equilibrium dialysis based LC-MS/MS method; assay type: ADME, cell-free; details: read-out: PPB
[22] = Cmax in human at 25 mg/kg, po administered as single dose; assay type: ADME, organism-based; parameters: dose 25 mg/kg, route po; details: in vivo
[23] = Plasma clearance in cynomolgus monkey at 1 mg/kg, iv measured upto 24 hrs by LC/MS-MS analysis; assay type: ADME, organism-based, Macaca fascicularis
[24] = AUC(0 to t) in human at 10 mg/kg, po administered as single dose; assay type: ADME, organism-based; parameters: dose 10 mg/kg, route po; details: in vivo
[25] = Metabolic stability in dog liver S9 fraction measured upto 60 mins by LC-MS/MS method; assay type: ADME, subcellular, Canis lupus familiaris; details: read-out: Stability
[26] = Volume of distribution at steady state in BALB/c mouse at 1 mg/kg, iv measured upto 24 hrs by LC/MS-MS analysis; assay type: ADME, organism-based; details: in vivo, read-out: Vdss
[27] = AUC(0 to 24 hrs) in Sprague-Dawley rat at 30 mg/kg; assay type: ADME, organism-based; parameters: dose 30 mg/kg; details: in vivo
[28] = Tmax in Sprague-Dawley rat at 1 mg/kg, iv measured upto 24 hrs by LC-MS/MS analysis; assay type: ADME, organism-based; details: in vivo
hERG = hERG (Homo sapiens, UniProt Q12809); assay: Inhibition of hERG at 1 uM relative to control; assay type: toxicity
[29] = Ratio of drug concentration in brain to plasma in Sprague-Dawley rat at 10 mg/kg, po measured upto 24 hrs by LC-MS/MS analysis; assay type: ADME, organism-based; details: read-out: BPR
[30] = Microsomal stability in rat liver microsomes assessed as parent compound remaining at 1 uM measured upto 30 mins in presence of NADPH by LC-MS/MS analysis; assay type: ADME, Microsome; details: read-out: Stability
[31] = AUC(0 to t) in human at 25 mg/kg, po administered as multiple dose on day 8; assay type: ADME, organism-based; parameters: dose 25 mg/kg, route po; details: in vivo
Rattus norvegicus [32] = assay: Acute effect on parathyroid hormone in overnight fasted adenine diet-induced chronic kidney disease Wistar rat model plasma assessed as reduction in plasma PTH level at 1 mg/kg, po measured after 4 hrs of post treatment by sandwich ELISA analysis; assay type: functional; parameters: scale not given: the % may be the effect or the level left
[33] = Chemical stability of the compound in FeSSIF measured after 0.5 to 4 hrs; assay type: physicochemical; details: simulated gi fluid; time 0.5-4 hrs
[34] = Half life in BALB/c mouse at 1 mg/kg, iv measured upto 24 hrs by LC/MS-MS analysis; assay type: ADME, organism-based; details: in vivo
[35] = Toxicity in monkey assessed as NOAEL; parameters: species or system Macaca mulatta; details: rhesus monkey, in vivo
[36] = Clearance in Sprague-Dawley rat at 10 mg/kg, po administered as solution measured upto 24 hrs by LC-MS/MS analysis; assay type: ADME, organism-based; details: in vivo
Rattus norvegicus [37] = assay: Subchronic effect on parathyroid hormone in overnight fasted adenine diet-induced chronic kidney disease Wistar rat model plasma assessed as reduction in plasma PTH level at 0.3 mg/kg, po qd measured after 27 days of post treatment by sandwich ELISA analysis; assay type: functional; parameters: scale not given: the % may be the effect or the level left; details: time 27 day
[38] = Oral bioavailability in cynomolgus monkey at 5 mg/kg measured upto 24 hrs by LC/MS-MS analysis; assay type: ADME, organism-based, Macaca fascicularis; details: in vivo
[39] = Oral bioavailability in Sprague-Dawley rat at 10 mg/kg measured upto 24 hrs by LC/MS-MS analysis; assay type: ADME, organism-based; details: in vivo
[40] = Stability in mouse plasma measured up to 4 hrs by LC-MS/MS method; assay type: ADME, cell-free; details: read-out: Stability
CYP2C19 = CYP2C19 (Homo sapiens, UniProt P33261); assay: Inhibition of CYP2C19 in human liver microsomes at 10 uM preincubated for 5 mins followed by NADPH addition by LC-MS/MS analysis relative to control; assay type: ADME, Microsome
[41] = Cmax in Sprague-Dawley rat at 10 mg/kg, po administered as suspension measured upto 24 hrs by LC-MS/MS analysis; assay type: ADME, organism-based; parameters: dose 10 mg/kg, time < 24 hrs, route po; details: in vivo

Sequence of CYP3A4 (P08684 whole entry): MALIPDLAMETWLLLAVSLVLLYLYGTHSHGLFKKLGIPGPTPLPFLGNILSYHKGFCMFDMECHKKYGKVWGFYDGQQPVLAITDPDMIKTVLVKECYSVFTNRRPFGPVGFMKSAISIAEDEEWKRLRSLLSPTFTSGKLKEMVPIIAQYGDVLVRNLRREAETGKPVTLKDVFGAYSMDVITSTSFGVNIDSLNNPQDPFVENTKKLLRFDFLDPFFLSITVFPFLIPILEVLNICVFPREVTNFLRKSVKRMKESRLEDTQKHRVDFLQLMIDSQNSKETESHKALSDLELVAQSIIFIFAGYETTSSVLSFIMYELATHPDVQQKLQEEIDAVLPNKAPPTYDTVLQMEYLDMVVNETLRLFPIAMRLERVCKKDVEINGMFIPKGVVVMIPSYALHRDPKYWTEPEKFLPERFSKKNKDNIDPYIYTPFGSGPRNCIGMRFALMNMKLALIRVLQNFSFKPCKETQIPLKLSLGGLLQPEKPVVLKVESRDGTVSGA
Sequence of CYP2C19 (P33261 whole entry): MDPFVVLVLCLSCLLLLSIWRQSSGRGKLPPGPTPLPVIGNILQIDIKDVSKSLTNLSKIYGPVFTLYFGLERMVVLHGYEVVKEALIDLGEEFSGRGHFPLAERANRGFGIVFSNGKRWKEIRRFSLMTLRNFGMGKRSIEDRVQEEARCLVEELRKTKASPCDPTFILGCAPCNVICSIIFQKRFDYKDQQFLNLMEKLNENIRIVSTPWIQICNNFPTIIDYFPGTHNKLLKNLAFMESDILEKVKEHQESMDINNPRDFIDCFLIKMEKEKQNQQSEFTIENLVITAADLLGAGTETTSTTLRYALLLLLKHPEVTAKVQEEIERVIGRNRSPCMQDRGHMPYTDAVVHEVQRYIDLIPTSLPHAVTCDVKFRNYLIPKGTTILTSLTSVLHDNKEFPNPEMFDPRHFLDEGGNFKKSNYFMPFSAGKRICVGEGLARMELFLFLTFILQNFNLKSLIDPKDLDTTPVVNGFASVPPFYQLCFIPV
Sequence of CYP2C9 (P11712 whole entry): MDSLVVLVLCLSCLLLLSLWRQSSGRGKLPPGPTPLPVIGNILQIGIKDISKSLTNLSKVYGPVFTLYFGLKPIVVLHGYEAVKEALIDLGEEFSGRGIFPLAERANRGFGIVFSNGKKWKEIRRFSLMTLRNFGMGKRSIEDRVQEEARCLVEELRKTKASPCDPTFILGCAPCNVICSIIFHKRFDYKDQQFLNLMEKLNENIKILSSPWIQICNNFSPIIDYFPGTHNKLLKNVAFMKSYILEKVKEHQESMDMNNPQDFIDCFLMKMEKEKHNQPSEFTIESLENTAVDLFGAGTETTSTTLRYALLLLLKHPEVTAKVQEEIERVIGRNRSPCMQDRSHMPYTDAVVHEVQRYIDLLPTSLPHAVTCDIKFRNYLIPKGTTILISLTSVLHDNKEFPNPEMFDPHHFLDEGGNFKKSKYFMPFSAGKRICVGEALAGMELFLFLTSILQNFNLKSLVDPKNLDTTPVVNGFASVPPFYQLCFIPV
Sequence of hERG (Q12809 whole entry): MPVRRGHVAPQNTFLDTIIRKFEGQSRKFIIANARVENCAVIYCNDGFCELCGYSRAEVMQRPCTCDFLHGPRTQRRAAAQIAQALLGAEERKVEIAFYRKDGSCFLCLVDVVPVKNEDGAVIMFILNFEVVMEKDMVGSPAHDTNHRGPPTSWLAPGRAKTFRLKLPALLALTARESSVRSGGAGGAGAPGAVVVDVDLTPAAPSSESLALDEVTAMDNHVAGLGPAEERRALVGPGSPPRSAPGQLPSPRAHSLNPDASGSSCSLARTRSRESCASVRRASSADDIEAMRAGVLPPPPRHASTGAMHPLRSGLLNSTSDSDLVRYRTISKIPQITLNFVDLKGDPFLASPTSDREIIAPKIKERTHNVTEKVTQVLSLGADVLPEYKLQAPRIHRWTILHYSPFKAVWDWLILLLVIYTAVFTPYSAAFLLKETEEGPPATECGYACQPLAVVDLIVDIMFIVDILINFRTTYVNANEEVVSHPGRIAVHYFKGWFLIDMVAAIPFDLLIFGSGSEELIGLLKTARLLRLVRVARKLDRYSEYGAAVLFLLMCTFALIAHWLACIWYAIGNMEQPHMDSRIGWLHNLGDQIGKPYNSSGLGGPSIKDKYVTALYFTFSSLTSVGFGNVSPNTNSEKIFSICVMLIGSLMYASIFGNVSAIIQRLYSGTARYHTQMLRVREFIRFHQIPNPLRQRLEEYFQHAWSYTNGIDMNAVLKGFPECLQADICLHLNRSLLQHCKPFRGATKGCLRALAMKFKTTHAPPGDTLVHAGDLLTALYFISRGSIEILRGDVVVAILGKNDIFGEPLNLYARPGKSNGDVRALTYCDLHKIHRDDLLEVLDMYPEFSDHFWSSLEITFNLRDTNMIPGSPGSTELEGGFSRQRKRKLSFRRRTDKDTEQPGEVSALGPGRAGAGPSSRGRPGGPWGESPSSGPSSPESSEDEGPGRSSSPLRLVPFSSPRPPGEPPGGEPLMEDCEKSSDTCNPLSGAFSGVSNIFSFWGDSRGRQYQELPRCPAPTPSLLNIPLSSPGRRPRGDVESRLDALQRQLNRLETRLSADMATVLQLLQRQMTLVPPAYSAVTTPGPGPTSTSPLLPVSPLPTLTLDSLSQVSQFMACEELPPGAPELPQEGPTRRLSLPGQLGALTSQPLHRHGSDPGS

Question: Which Vd [1] does the source give for `Cc1ccc([C@@H]2C[C@H](CN[C@H](C)c3cccc4ccccc34)Oc3ccccc32)cc1C(=O)O.Cl` here?
Answer: 1 L/kg

Question: And the solubility kinetic at 16 h, 500 µM [2]?
Answer: > 300 µM

Question: What about the AUC(0-t) [3] of the same compound?
Answer: 1020 µM·h

Question: And the Tmax [4]?
Answer: 1 h

Question: What about the AUC at 24 h [5] of the same compound?
Answer: 71 µM·h

Question: What about the Cmax [6] of the same compound?
Answer: 0.4 µM

Question: What about the Cmax [7] of the same compound?
Answer: 31 µM

Question: And the remaining at 1 h [8]?
Answer: > 80%

Question: And the remaining at 4 h [9]?
Answer: > 80%

Question: What about the remaining at 1 h [10] of the same compound?
Answer: > 80%

Question: What about the inhibition at 10 µM (CYP2C9) of the same compound?
Answer: 0%

Question: And the Vd [11]?
Answer: 20 L/kg

Question: And the Activity (Rattus norvegicus [12])?
Answer: 97%

Question: And the solubility kinetic at 16 h, 500 µM [13]?
Answer: > 300 µM

Question: What about the Ratio [14] of the same compound?
Answer: 0.3

Question: And the Cmax [15]?
Answer: 14 µM

Question: What about the AUC(0-t) at 24 h [16] of the same compound?
Answer: 7 µM·h

Question: What about the Tmax [17] of the same compound?
Answer: 1 h

Question: And the Vd [18]?
Answer: 0.7 L/kg

Question: What about the Tmax [19] of the same compound?
Answer: 0.6 h

Question: And the inhibition at 10 µM (CYP3A4)?
Answer: 0%

Question: And the Papp A→B at 5 µM [20]?
Answer: 20 ×10⁻⁶ cm/s

Question: And the fraction unbound at 16 h [21]?
Answer: < 0.01

Question: What about the Cmax [22] of the same compound?
Answer: 367 ng/mL

Question: What about the clearance [23] of the same compound?
Answer: 151 mL/min/kg

Question: What about the AUC(0-t) [24] of the same compound?
Answer: 1840 ng·h/mL

Question: And the remaining at 1 h [25]?
Answer: > 80%

Question: And the Vd [26]?
Answer: 0.6 L/kg

Question: What about the AUC(0-t) [27] of the same compound?
Answer: 116 µM·h

Question: What about the Tmax [28] of the same compound?
Answer: 4.8 min

Question: And the inhibition at 1 µM (hERG)?
Answer: 1%

Question: What about the Kp at 24 h [29] of the same compound?
Answer: 0.2

Question: What about the remaining at 0.5 h, 1 µM [30] of the same compound?
Answer: 77%

Question: What about the AUC(0-t) [31] of the same compound?
Answer: 5090 ng·h/mL

Question: And the Activity (Rattus norvegicus [32])?
Answer: 84%

Question: And the Stability [33]?
Answer: Stable

Question: And the half-life [34]?
Answer: 3 h

Question: What about the NOAEL [35] of the same compound?
Answer: 50 mg/kg/day

Question: What about the CL/F [36] of the same compound?
Answer: 6 mL/min/kg

Question: And the Activity (Rattus norvegicus [37])?
Answer: 73%

Question: And the bioavailability [38]?
Answer: 100%

Question: What about the bioavailability [39] of the same compound?
Answer: 99%

Question: What about the remaining at 4 h [40] of the same compound?
Answer: > 80%

Question: And the inhibition at 10 µM (CYP2C19)?
Answer: 7%

Question: And the Cmax [41]?
Answer: 4 µM

From ChEMBL document CHEMBL5346964, “Discovery of LNP1892: A Precision Calcimimetic for the Treatment of Secondary Hyperparathyroidism” (J Med Chem, 2023)
